Experimental data from patent US20050228031A1, “Tyrosine kinase inhibitors” (priority 2004, published 2005).

| melting point [°C] | Compound |
| --- | --- |
| 144 | Cc1cc(C)cc(Nc2ncc(-c3ccccc3)s2)c1 [Compound 2-3, N-(3,5-dimethylphenyl)-5-phenyl-1,3-thiazol-2-amine] |
| 169 to 170 | c1ccc(Nc2ncc(-c3ccccc3)o2)cc1 [Compound 5-4, N,5-diphenyl-1,3-oxazol-2-amine] |
| 152 | c1ccc(-c2cnc(Nc3ccc4c(c3)CCC4)o2)cc1 [Compound 5-5, N-(2,3-dihydro-1H-inden-5-yl)-5-phenyl-1,3-oxazol-2-amine] |
| 203 | FC(F)(F)c1cc(Nc2ncc(-c3ccccc3)o2)cc(C(F)(F)F)c1 [Compound 5-6, N-[3,5-bis(trifluoromethyl)-phenyl]-5-phenyl-1,3-oxazol-2-amine] |
